This data set can be described thus: Hydrophobicity evaluation of hydrophobic metal phthalocyanine dye by TLC (Rf value). The note with it: TLC glass plate RP-18, methanol containing 1% by weight lithium chloride; value of the dye used. Format: physicochemical. The procedure:
To compare the hydrophobicities of hydrophobic metal phthalocyanine dyes, evaluation was carried out using a thin-layer liquid chromatography (hereinafter sometimes abbreviated as TLC) method.
A TLC glass plate, RP-18 (from Merck & Co., Inc.), was used as a development plate, and a methanol solution containing 1% by weight of lithium chloride was used as a development solvent.
According to an established method, a dye solution was spotted on the starting line and the relative migration distance (hereinafter sometimes abbreviated as Rf value) was calculated based on the following equation. Rf value=the distance from the starting line to the center of the spot of the component/the distance from the starting line to the top of the solvent

We go through four substances from patent US20150037255A1, “PHTHALOCYANINE DYE-CONTAINING CONTRAST AGENT FOR PHOTOACOUSTIC IMAGING” (CANON KABUSHIKI KAISHA, priority 2013, published 2015).

In the case of “Cobalt 2,9,16,23-tetra-tert-butyl-29H,31H-phthalocyanine”, the “Rf Value” was found to be 0.08.

On to “Copper (II) 2,9,16,23-tetra-tert-butyl-29H,31H-phthalocyanine”, for which the “Rf Value” amounted to 0.06.

“Zinc 2,9,16,23-tetra-tert-butyl-29H,31H-phthalocyanine”: the “Rf Value” is reported as 0.10.

Consider “tert-butyl silicon-[bis trimethylsiloxy]-phthalocyanine”, for which the “Rf Value” is 0.12.
